What was measured:
Carboxylesterase 1E = target: T1, Carboxylesterase 1E (Rattus norvegicus, UniProt Q63108); assay: Specific activity (hydrolysis) by purified carboxylesterase isozyme RH1 against microsomes in rat liver
T1 sequence (Q63108 whole entry): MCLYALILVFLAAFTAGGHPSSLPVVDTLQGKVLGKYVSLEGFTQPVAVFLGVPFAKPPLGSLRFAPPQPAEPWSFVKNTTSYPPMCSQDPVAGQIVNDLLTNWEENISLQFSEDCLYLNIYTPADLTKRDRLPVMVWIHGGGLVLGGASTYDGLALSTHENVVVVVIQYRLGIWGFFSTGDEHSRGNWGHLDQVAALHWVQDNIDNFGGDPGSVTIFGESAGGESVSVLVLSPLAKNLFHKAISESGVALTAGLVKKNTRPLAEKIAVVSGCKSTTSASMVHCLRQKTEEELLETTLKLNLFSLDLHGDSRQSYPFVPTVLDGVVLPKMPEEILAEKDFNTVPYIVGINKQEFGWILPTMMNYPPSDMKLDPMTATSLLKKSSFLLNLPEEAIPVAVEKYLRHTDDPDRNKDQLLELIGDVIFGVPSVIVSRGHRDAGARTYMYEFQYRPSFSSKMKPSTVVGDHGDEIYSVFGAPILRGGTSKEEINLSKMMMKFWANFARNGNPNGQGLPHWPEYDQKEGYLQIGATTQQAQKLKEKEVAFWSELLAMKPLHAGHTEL

Liver carboxylesterase 1 = target: T2, Liver carboxylesterase 1 (Homo sapiens, UniProt P23141); assay: Specific activity (hydrolysis) by purified carboxylesterase isozyme HU1 against microsomes in human liver
T2 sequence (P23141 whole entry): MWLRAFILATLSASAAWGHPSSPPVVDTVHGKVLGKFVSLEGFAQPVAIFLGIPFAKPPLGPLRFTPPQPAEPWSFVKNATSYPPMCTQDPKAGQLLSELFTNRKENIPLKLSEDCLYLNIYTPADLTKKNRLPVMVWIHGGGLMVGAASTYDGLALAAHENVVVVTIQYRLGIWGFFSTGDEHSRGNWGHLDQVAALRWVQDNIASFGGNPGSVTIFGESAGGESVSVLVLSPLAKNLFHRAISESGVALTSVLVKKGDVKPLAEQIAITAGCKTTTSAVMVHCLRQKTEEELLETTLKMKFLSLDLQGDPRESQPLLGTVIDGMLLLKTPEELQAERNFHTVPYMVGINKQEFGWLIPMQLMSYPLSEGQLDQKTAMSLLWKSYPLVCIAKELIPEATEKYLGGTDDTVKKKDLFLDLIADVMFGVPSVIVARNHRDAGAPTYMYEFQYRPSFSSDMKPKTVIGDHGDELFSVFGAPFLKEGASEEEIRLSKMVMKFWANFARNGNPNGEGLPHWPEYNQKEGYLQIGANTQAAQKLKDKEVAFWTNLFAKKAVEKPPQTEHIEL

[1] = tested on: Liver carboxylesterase 1 (Sus scrofa); assay: Specific activity (hydrolysis) by purified carboxylesterase isozyme P1 against microsomes in pig liver

Structure (SMILES) | Activity (Carboxylesterase 1E) [nmol/min/mg] | Activity (Liver carboxylesterase 1) [nmol/min/mg] | Activity [1] [nM/mg/min]
CCCCCCCCCCCCCCCCCCCC(=O)Oc1ccc2nc3c(cc2c1)Cn1c-3cc2c(c1=O)COC(=O)[C@]2(O)CC | 0.183 | 1.07 | 0.854
CCc1c2c(nc3ccc(OC(=O)N4CCC(N5CCCCC5)CC4)cc13)-c1cc3c(c(=O)n1C2)COC(=O)[C@]3(O)CC [IRINOTECAN] | 0.259 | – | –
CCCCCCCCCCCCCCCC(=O)Oc1ccc2nc3c(cc2c1)Cn1c-3cc2c(c1=O)COC(=O)[C@]2(O)CC | 2.33 | 1.58 | 9.13
CCCCCCCCCCCCCCCCCC(=O)Oc1ccc2nc3c(cc2c1)Cn1c-3cc2c(c1=O)COC(=O)[C@]2(O)CC | 0.698 | 1.27 | 3.02
CCCCCCCCCC(=O)Oc1ccc2nc3c(cc2c1)Cn1c-3cc2c(c1=O)COC(=O)[C@]2(O)CC | 17.4 | 27.9 | 37.4
CCCCCCCCCCCC(=O)Oc1ccc2nc3c(cc2c1)Cn1c-3cc2c(c1=O)COC(=O)[C@]2(O)CC | 19.1 | 15.3 | 42.1
